Measured values published in PubChem BioAssay (NCI).
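Five compound concentrations were applied to cells in 96-well plates for 48 hours; endpoints were derived by simple linear interpolation of the resulting dose-response curve. TGI marks complete inhibition of growth.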

Tests used:
Test in all cases: inhibition of tumour cell growth, NCI panel, 48 h
786-0 renal = tested on: 786-0 renal
A498 renal = tested on: A498 renal
A549 NSCLC = tested on: A549 NSCLC
ACHN renal = tested on: ACHN renal
CAKI-1 renal = tested on: CAKI-1 renal
CCRF-CEM leukemia = tested on: CCRF-CEM leukemia
COLO 205 colon = tested on: COLO 205 colon
DLD-1 colon = tested on: DLD-1 colon
DMS 114 small cell lung = tested on: DMS 114 small cell lung
DU-145 prostate = tested on: DU-145 prostate
EKVX NSCLC = tested on: EKVX NSCLC
HCC-2998 colon = tested on: HCC-2998 colon
HCT-116 colon = tested on: HCT-116 colon
HCT-15 colon = tested on: HCT-15 colon
HL-60(TB) leukemia = tested on: HL-60(TB) leukemia
HOP-18 NSCLC = tested on: HOP-18 NSCLC
HOP-62 NSCLC = tested on: HOP-62 NSCLC
HOP-92 NSCLC = tested on: HOP-92 NSCLC
HT29 colon = tested on: HT29 colon
IGROV1 ovarian = tested on: IGROV1 ovarian
K-562 leukemia = tested on: K-562 leukemia
KM12 colon = tested on: KM12 colon
KM20L2 colon = tested on: KM20L2 colon
LOX IMVI melanoma = tested on: LOX IMVI melanoma
LXFL 529 NSCLC = tested on: LXFL 529 NSCLC
M14 melanoma = tested on: M14 melanoma
M19-MEL melanoma = tested on: M19-MEL melanoma
MALME-3M melanoma = tested on: MALME-3M melanoma
MOLT-4 leukemia = tested on: MOLT-4 leukemia
NCI-H226 lung = tested on: NCI-H226 lung
NCI-H23 lung = tested on: NCI-H23 lung
NCI-H460 lung = tested on: NCI-H460 lung
NCI-H522 lung = tested on: NCI-H522 lung
OVCAR-3 ovarian = tested on: OVCAR-3 ovarian
OVCAR-4 ovarian = tested on: OVCAR-4 ovarian
OVCAR-5 ovarian = tested on: OVCAR-5 ovarian
OVCAR-8 ovarian = tested on: OVCAR-8 ovarian
RPMI-8226 leukemia = tested on: RPMI-8226 leukemia
RXF 393 renal = tested on: RXF 393 renal
SF-268 CNS = tested on: SF-268 CNS
SF-295 CNS = tested on: SF-295 CNS
SF-539 CNS = tested on: SF-539 CNS
SK-MEL-2 melanoma = tested on: SK-MEL-2 melanoma
SK-MEL-28 melanoma = tested on: SK-MEL-28 melanoma
SK-MEL-5 melanoma = tested on: SK-MEL-5 melanoma
SK-OV-3 ovarian = tested on: SK-OV-3 ovarian
SN12C renal = tested on: SN12C renal
SNB-19 CNS = tested on: SNB-19 CNS
SNB-75 CNS = tested on: SNB-75 CNS
SNB-78 CNS = tested on: SNB-78 CNS
SR leukemia = tested on: SR leukemia
SW-620 colon = tested on: SW-620 colon
TK-10 renal = tested on: TK-10 renal
U251 CNS = tested on: U251 CNS
UACC-257 melanoma = tested on: UACC-257 melanoma
UACC-62 melanoma = tested on: UACC-62 melanoma
UO-31 renal = tested on: UO-31 renal
XF 498 CNS = tested on: XF 498 CNS
DMS 273 small cell lung = tested on: DMS 273 small cell lung

CCOP(=O)(OCC)/C(C#N)=C\c1ccc(OC(C)=O)cc1
TGI (786-0 renal): > 100 µM
TGI (A498 renal): > 100 µM
TGI (A549 NSCLC): > 100 µM
TGI (ACHN renal): > 100 µM
TGI (CAKI-1 renal): > 100 µM
TGI (CCRF-CEM leukemia): > 100 µM
TGI (COLO 205 colon): > 100 µM
TGI (DLD-1 colon): > 100 µM
TGI (DMS 114 small cell lung): > 100 µM
TGI (DU-145 prostate): > 100 µM
TGI (EKVX NSCLC): > 100 µM
TGI (HCC-2998 colon): > 100 µM
TGI (HCT-116 colon): > 100 µM
TGI (HCT-15 colon): > 100 µM
TGI (HL-60(TB) leukemia): > 100 µM
TGI (HOP-18 NSCLC): > 100 µM
TGI (HOP-62 NSCLC): > 100 µM
TGI (HOP-92 NSCLC): > 100 µM
TGI (HT29 colon): > 100 µM
TGI (IGROV1 ovarian): > 100 µM
TGI (K-562 leukemia): > 100 µM
TGI (KM12 colon): > 100 µM
TGI (KM20L2 colon): > 100 µM
TGI (LOX IMVI melanoma): > 100 µM
TGI (LXFL 529 NSCLC): > 100 µM
TGI (M14 melanoma): > 100 µM
TGI (M19-MEL melanoma): > 100 µM
TGI (MALME-3M melanoma): > 100 µM
TGI (MOLT-4 leukemia): > 100 µM
TGI (NCI-H226 lung): > 100 µM
TGI (NCI-H23 lung): > 100 µM
TGI (NCI-H460 lung): > 100 µM
TGI (NCI-H522 lung): > 100 µM
TGI (OVCAR-3 ovarian): > 100 µM
TGI (OVCAR-4 ovarian): > 100 µM
TGI (OVCAR-5 ovarian): > 100 µM
TGI (OVCAR-8 ovarian): > 100 µM
TGI (RPMI-8226 leukemia): > 100 µM
TGI (RXF 393 renal): > 100 µM
TGI (SF-268 CNS): > 100 µM
TGI (SF-295 CNS): > 100 µM
TGI (SF-539 CNS): > 100 µM
TGI (SK-MEL-2 melanoma): > 100 µM
TGI (SK-MEL-28 melanoma): > 100 µM
TGI (SK-MEL-5 melanoma): > 100 µM
TGI (SK-OV-3 ovarian): > 100 µM
TGI (SN12C renal): > 100 µM
TGI (SNB-19 CNS): > 100 µM
TGI (SNB-75 CNS): > 100 µM
TGI (SNB-78 CNS): > 100 µM
TGI (SR leukemia): > 100 µM
TGI (SW-620 colon): > 100 µM
TGI (TK-10 renal): > 100 µM
TGI (U251 CNS): > 100 µM
TGI (UACC-257 melanoma): > 100 µM
TGI (UACC-62 melanoma): > 100 µM
TGI (UO-31 renal): > 100 µM
TGI (XF 498 CNS): > 100 µM

CCOC(=O)C1=C(OC(OCC)C(C)[Se]c2ccccc2)CCC1 (centres undefined)
TGI (786-0 renal): 25.1 µM
TGI (A498 renal): > 100 µM
TGI (A549 NSCLC): > 100 µM
TGI (ACHN renal): 68.4 µM
TGI (CAKI-1 renal): > 100 µM
TGI (CCRF-CEM leukemia): 49.7 µM
TGI (COLO 205 colon): 82.2 µM
TGI (DLD-1 colon): 40.5 µM
TGI (DMS 273 small cell lung): 22.4 µM
TGI (EKVX NSCLC): 59.1 µM
TGI (HCC-2998 colon): > 100 µM
TGI (HCT-116 colon): 38.8 µM
TGI (HCT-15 colon): 33.6 µM
TGI (HL-60(TB) leukemia): 21.2 µM
TGI (HOP-18 NSCLC): 51.7 µM
TGI (HOP-62 NSCLC): > 100 µM
TGI (HOP-92 NSCLC): 48.3 µM
TGI (HT29 colon): 77.6 µM
TGI (IGROV1 ovarian): 81 µM
TGI (K-562 leukemia): > 100 µM
TGI (KM12 colon): > 100 µM
TGI (KM20L2 colon): 74.2 µM
TGI (LOX IMVI melanoma): 20.4 µM
TGI (LXFL 529 NSCLC): 37.4 µM
TGI (M14 melanoma): 63.2 µM
TGI (M19-MEL melanoma): 38.9 µM
TGI (MALME-3M melanoma): 89.5 µM
TGI (MOLT-4 leukemia): 58.5 µM
TGI (NCI-H226 lung): 50.4 µM
TGI (NCI-H23 lung): 27.9 µM
TGI (NCI-H460 lung): 60 µM
TGI (NCI-H522 lung): 26.9 µM
TGI (OVCAR-3 ovarian): 32 µM
TGI (OVCAR-4 ovarian): 37.5 µM
TGI (OVCAR-5 ovarian): > 100 µM
TGI (OVCAR-8 ovarian): 30.1 µM
TGI (RPMI-8226 leukemia): 36.5 µM
TGI (RXF 393 renal): 30.2 µM
TGI (SF-268 CNS): 32.3 µM
TGI (SF-295 CNS): 79.3 µM
TGI (SF-539 CNS): 39.9 µM
TGI (SK-MEL-2 melanoma): > 100 µM
TGI (SK-MEL-28 melanoma): 62.7 µM
TGI (SK-MEL-5 melanoma): 39.9 µM
TGI (SK-OV-3 ovarian): > 100 µM
TGI (SN12C renal): 36.5 µM
TGI (SNB-19 CNS): > 100 µM
TGI (SNB-75 CNS): 73.6 µM
TGI (SNB-78 CNS): > 100 µM
TGI (SR leukemia): 28 µM
TGI (TK-10 renal): > 100 µM
TGI (U251 CNS): 20.1 µM
TGI (UACC-257 melanoma): > 100 µM
TGI (UACC-62 melanoma): 43.6 µM
TGI (UO-31 renal): 47.1 µM
TGI (XF 498 CNS): 34.4 µM
